Legend:
Assay type in all cases: functional
Cavia porcellus [1] = species: Cavia porcellus; assay: The inhibitory activity is expressed as percentage of the maximal contraction induced by KCl
Cavia porcellus [2] = species: Cavia porcellus; assay: The inhibitory activity is expressed as percentage of the maximal contraction induced by Ach 3 mM at 3*10e-4 M
Cavia porcellus [3] = species: Cavia porcellus; assay: The inhibitory activity is expressed as percentage of the maximal contraction induced by histamine
Cavia porcellus [4] = species: Cavia porcellus; assay: The inhibitory activity is expressed as percentage of the maximal contraction induced by 30 mM KCl dependent on extracellular Ca+2 influx at 10e-4 M
Cavia porcellus [5] = species: Cavia porcellus; assay: The -logEC50 value of genistein on ACh-precontracted rings, where EC50 is the concentration causing 50% relaxation
Cavia porcellus [6] = species: Cavia porcellus; assay: The inhibitory activity is expressed as percentage of the maximal contraction induced by 30 mM KCl dependent on extracellular Ca+2 influx at 10e-5 M

EC50 (Cavia porcellus [5]) [µM] | SMILES | Max effect (Cavia porcellus [1]) | Max effect (Cavia porcellus [2]) | Max effect (Cavia porcellus [3]) | Max effect (Cavia porcellus [4]) | Max effect (Cavia porcellus [6])
– | O=c1c(-c2ccc(F)cc2)coc2cc(O)cc(O)c12 | 71 | 26 | 69 | 36 | –
0.0759 | CC(C)(C)NCC(O)c1ccc(O)c(CO)c1 (configuration not stated) [ALBUTEROL] | – | – | – | – | –
– | O=c1c(-c2ccc(F)c(F)c2)coc2cc(O)cc(O)c12 | – | 33 | – | – | –
– | O=c1c(-c2ccc(F)cc2F)coc2cc(O)cc(O)c12 | 78 | 36 | 73 | 41 | –
195 | O=c1c(-c2ccc(O)cc2)coc2cc(O)cc(O)c12 [GENISTEIN] | 88 | 66 | 98 | 79 | 35

SMILES | EC50 (Cavia porcellus [5]) [µM] | Max effect (Cavia porcellus [1]) | Max effect (Cavia porcellus [2]) | Max effect (Cavia porcellus [3]) | Max effect (Cavia porcellus [4]) | Max effect (Cavia porcellus [6])
Cn1c(=O)c2[nH]cnc2n(C)c1=O [AMINOPHYLLINE] | 525 | – | – | – | – | –

Reference: ChEMBL document CHEMBL1129872, “GENISTEIN AND FLUORINATED ANALOGS SUPPRESS AGONIST-INDUCED AIRWAY SMOOTH MUSCLE CONTRACTION” (Bioorg Med Chem Lett, 1997)
